Test results taken from patent publication US20220305115A1 (JANSSEN SCIENCES IRELAND UNLIMITED COMPANY, priority 2019, published 2022).

Experiments:
Format in all cases: cell-based
TNFα = experiment: PBMC cytokine profiling assay, TNFα induction; details: Homo sapiens, 24 h, human PBMCs, 24 hours incubation
Description: (§1) Compounds were dissolved and stored in DMSO (Sigma-Aldrich, St. Louis, Mo.) at 10 mM concentration.
(§2) Cryopreserved human PBMCs isolated from healthy donors were purchased from StemCell Technologies (Vancouver, Canada). Cell culture medium used was RPMI with L-Glutamine (Mediatech, Manassas, Va.) supplemented with 10% fetal bovine serum (Hyclone, GE Healthcare, Logan, Utah) and Penicillin-Streptomycin (Mediatech). Human TNFα, IL12p40, and IFNα2a 384-well Assay capture plates, standards, buffers and processing reagents were obtained from MesoScale Discovery Technologies (MSD; Rockville, Md.).
(§3) Cryopreserved human PBMCs (1×10e8 cells/ml) were thawed at 37° C. and resuspended in 25 mL warm cell culture medium. The cells were pelleted at 200×g (Beckman Avanti J-E) for 5 min and resuspended in 20 mL of fresh culture media. Cells were counted using a Cellometer (Nexcelcom Bioscience), adjusted to 2×10e6 cells, and incubated for 2 hours in an incubator set at 37° C., 5% CO2 to recover from cryopreservation. […]
(§4) Using a Biomek FX 384 well pipetting station (Beckman), conditioned culture medium (CCM) from the assay plate was transferred to MSD capture plates customized for each cytokine. […] MSD Read Buffer diluted to 2× in deionized water and 35 μL/well was added via Biomek FX instrument. The plates were read immediately in a MSD6000 reader. […]

IL12p40 = experiment: PBMC cytokine profiling assay, IL12-p40 induction; details: Homo sapiens, 24 h, human PBMCs, 24 hours incubation
Description: as §1, §2, §3, §4

IFNα = experiment: PBMC cytokine profiling assay, IFNα induction; details: Homo sapiens, 24 h, human PBMCs, 24 hours incubation
Description: as §1, §2, §3, §4

human TLR8 = target: T1, human TLR8 (Homo sapiens, UniProt Q9NR97); experiment: HEK-Blue human TLR8 cell SEAP reporter assay (NF-κB activation); details: HEK-Blue human TLR8 cells, stimulation for 20 hours, Quanti Blue read at 640 nm
T1 construct: host or cells: HEK-Blue human TLR8 cells (HEK293-derived reporter line)
T1 sequence (Q9NR97 27-1041): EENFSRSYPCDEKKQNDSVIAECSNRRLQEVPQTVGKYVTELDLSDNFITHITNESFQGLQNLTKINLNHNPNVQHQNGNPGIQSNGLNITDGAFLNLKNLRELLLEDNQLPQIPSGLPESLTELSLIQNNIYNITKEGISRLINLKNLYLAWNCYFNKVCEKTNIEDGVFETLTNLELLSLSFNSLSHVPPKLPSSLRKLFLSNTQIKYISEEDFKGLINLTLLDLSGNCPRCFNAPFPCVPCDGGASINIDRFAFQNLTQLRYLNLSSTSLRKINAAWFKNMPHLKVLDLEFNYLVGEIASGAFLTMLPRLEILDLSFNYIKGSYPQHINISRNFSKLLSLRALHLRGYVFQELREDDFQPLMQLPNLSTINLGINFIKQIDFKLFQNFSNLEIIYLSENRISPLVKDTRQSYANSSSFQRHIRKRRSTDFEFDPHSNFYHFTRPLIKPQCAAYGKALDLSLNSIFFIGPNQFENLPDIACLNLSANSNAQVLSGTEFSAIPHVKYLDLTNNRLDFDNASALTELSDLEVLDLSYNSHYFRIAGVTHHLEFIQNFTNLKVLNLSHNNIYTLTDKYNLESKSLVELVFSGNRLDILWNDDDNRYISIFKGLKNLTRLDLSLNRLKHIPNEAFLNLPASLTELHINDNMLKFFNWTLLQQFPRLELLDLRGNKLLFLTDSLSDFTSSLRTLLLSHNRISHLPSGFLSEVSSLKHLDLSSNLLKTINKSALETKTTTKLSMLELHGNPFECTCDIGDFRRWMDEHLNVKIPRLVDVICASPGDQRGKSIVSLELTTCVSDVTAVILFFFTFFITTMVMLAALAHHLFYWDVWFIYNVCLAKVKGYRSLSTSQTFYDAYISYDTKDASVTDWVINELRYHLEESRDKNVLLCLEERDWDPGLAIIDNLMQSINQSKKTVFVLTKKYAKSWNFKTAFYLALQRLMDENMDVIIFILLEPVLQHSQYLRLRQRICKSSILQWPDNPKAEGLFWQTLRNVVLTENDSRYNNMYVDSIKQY
Excerpt: (§5) For TLR8 and TLR7 activity testing, HEK-Blue human TLR8 or TLR7 cells (Invivogen, San Diego, Calif., USA) are used, respectively. These cells are designed for studying the stimulation of human TLR8 or TLR7 by monitoring the activation of NF-κB. A SEAP (secreted embryonic alkaline phosphatase) reporter gene is placed under the control of the IFN-b minimal promoter fused to five NF-κB and AP-1-binding sites. Therefore the reporter expression is regulated by the NF-κB promoter upon stimulation of human TLR8 or TLR7 for 20 hours. The cell culture supernatant SEAP reporter activity was determined using Quanti Blue kit (Invivogen, San Diego, Ca, USA) at a wavelength of 640 nm, a detection medium that turns purple/blue in the presence of alkaline phosphatase. EC50 values were determined using Activity Base analysis (ID Business Solution, Limited).

human TLR7 = target: T2, human TLR7 (Homo sapiens, UniProt Q9NYK1); experiment: HEK-Blue human TLR7 cell SEAP reporter assay (NF-κB activation); details: HEK-Blue human TLR7 cells, stimulation for 20 hours, Quanti Blue read at 640 nm
T2 construct: host or cells: HEK-Blue human TLR7 cells (HEK293-derived reporter line)
T2 sequence (Q9NYK1 27-1049): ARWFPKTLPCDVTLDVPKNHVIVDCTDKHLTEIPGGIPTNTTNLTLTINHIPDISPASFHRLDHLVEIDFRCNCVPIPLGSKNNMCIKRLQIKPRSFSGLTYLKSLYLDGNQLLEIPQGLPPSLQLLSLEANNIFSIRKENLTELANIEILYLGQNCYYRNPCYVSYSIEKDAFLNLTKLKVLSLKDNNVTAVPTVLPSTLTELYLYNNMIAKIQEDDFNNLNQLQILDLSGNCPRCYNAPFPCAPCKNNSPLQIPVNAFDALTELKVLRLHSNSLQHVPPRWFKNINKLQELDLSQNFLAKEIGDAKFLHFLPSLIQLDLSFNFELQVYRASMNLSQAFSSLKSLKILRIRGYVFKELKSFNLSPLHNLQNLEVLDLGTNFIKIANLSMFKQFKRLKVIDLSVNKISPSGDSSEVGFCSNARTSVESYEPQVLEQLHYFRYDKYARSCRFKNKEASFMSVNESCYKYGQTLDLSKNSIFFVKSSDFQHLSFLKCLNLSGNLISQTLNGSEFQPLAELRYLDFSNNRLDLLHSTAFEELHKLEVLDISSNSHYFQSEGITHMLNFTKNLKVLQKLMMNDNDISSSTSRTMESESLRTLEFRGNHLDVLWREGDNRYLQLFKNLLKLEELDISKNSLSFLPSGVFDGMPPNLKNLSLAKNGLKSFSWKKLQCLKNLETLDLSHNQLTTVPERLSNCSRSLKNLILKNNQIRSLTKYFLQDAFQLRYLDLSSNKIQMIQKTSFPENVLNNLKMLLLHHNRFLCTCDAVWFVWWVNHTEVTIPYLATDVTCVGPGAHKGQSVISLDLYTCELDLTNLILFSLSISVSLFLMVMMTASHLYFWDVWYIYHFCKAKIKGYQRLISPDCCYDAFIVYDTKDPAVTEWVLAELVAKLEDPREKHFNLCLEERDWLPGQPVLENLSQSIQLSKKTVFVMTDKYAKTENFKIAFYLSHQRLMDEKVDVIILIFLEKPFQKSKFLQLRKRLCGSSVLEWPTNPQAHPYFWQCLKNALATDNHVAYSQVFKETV
Excerpt: as §5

Row | Structure (SMILES) | AC50 (TNFα) [nM] | AC50 (IL12p40) [nM] | AC50 (IFNα) [nM] | EC50 (human TLR8) [nM] | EC50 (human TLR7) [nM]
1 | CCCC[C@@H](Nc1nc(N)nc2cccnc12)[C@H](C)O [Compound 86] | 2900 | 2400 | 37400 |  | 
2 | CCCN(CCC)C(=O)C1=Cc2ccc(-c3cncnc3)cc2N=C(N)C1 [VTX-135, reference compound] |  |  |  | 39 | 3610
3 | CCCN(CCC)C(=O)C1=Cc2ccc(-c3cccnc3)cc2N=C(N)C1 [VTX-133, reference compound] |  |  |  | 77 | 1860
